In patent US20170333532A1, “ADP'ASE-ENHANCED APYRASE THERAPY FOR WOUNDS, MICROBIAL INFECTION, SEPSIS, AND HETEROTOPIC OSSIFICATION” (APT THERAPEUTICS, INC, priority 2014, published 2017):

Key:
[1] = system: A. baumannii strain ATCC 19606; assay: Killing of A. baumannii ATCC 19606 by colistin with Apyrase Agent, CFU count; assay type: cell-based; conditions: about 10^6 CFU/ml inoculum; Apyrase Agent 1 and 2 U/ml with colistin, or colistin alone at the same concentrations (0.25-2 μg/ml)
Procedure: (§1) Approximately 10^6 CFU/ml of A. baumannii strain ATCC 19606 is grown on solid medium culture plates in the presence of combinations of 0, 1, and 2 U/ml of Apyrase Agent and 0, 0.25, 0.5, 1, and 2 μg/ml of colistin. After incubation, the numbers of viable cells are determined by counting the colony forming units (CFU) on the plate (data provided as CFU/ml).
(§2) In this Example (and in subsequent Examples), the colistin is colistin sulfate salt, catalog number C4461 from Sigma-Aldrich (St. Louis, Mo.) and the apyrase is catalog number M0393L from New England BioLabs Inc. (Ipswich, Mass.).

A. baumannii strain DMCI = assay: Killing of A. baumannii DMCI by colistin with Apyrase Agent, CFU count; assay type: cell-based; conditions: about 10^6 CFU/ml inoculum; Apyrase Agent 1 and 2 U/ml with colistin, or colistin alone at the same concentrations (4-32 μg/ml)
Procedure: as §2
as §1, with “baumannii strain DMCI is grown” for “baumannii strain ATCC 19606 is grown”, “and 0, 4, 8, 16, and 32” for “and 0, 0.25, 0.5, 1, and 2”, “16, and 32 μg/ml of” for “1, and 2 μg/ml of”

[2] = system: Burkholderia cepacia AU1114; assay: Killing of Burkholderia cepacia AU1114 by colistin with Apyrase Agent, CFU count; assay type: cell-based; conditions: colistin at less than 20 μg/ml, with Apyrase Agent 2 U/ml or alone
Procedure: as §2
(§3) Burkholderia cepacia AU1114 is grown in the presence of combinations of 0 and 2 U/ml of Apyrase Agent and approximately 0 to 20 μg/ml of colistin. After incubation, the numbers of viable cells are determined by counting the colony forming units (CFU) on the plate (data provided as CFU/ml). Apyrase Agent improves the efficiency of killing Burkholderia cepacia AU1114 by colistin. Apyrase Agent increases the effectiveness of colistin at less than 20 μg/ml such that less than 10 to 100 CFU/ml are detected relative to greater than 10^5 to 10^6 in the presence of colistin alone at the same concentrations.

[3] = system: P. aeruginosa strain AU7443, mucoid; assay: Killing of P. aeruginosa AU7443, mucoid by colistin with Apyrase Agent, CFU count; assay type: cell-based; conditions: colistin at less than 20 μg/ml, with Apyrase Agent 2 U/ml or alone
Procedure: as §2
P. aeruginosa strain AU7443, mucoid is grown in the presence of combinations of 0 and 2 U/ml of Apyrase Agent and approximately 0 to 20 μg/ml of colistin. After incubation, the numbers of viable cells are determined by counting the colony forming units (CFU) on the plate (data provided as CFU/ml). Apyrase Agent improves the efficiency of killing P. aeruginosa strain AU7443, mucoid by colistin. Apyrase Agent increases the effectiveness of colistin at less than 20 μg/ml such that less than 10 to 100 CFU/ml are detected relative to greater than 10^4 to 10^5 in the presence of colistin alone at the same concentrations.

A. baumannii DMCI = assay: Mouse burn wound infection model, A. baumannii DMCI, six groups; assay type: in vivo; conditions: C57BL/6 mice, 24 hours after burn, colistin 4 μg/ml, treatment immediately after inoculation
Description: An established mouse wound model is used for these tests. Female pathogen-free C57BL/6 mice (Harlan, Indianapolis, Ind.), 12 weeks old, weighing ˜20-25 grams are used in all experiments. The skin over the lumbrosacral and back region is clipped using a 35-W model 5-55E electrical clipper (Oyster-Golden A-S, Head no. 80, blade size 40) by using the method described by Ipaktchi et al. with slight modification. Two hundred microliters of 0.9% saline suspension of A. baumannii DMCI (I×10^6 cells/ml), which is a highly colistin resistant clinical strain, is used for wound infection experiments. Viable bacterial numbers are determined 24 hours after burn. The Student t-test is used for statistical analysis.
Experiments are carried out in six groups (I) a control group, which contains neither apyrase nor colistin; (2) potato apyrase group, which contains potato apyrase (I U/ml); (3) colistin group, which contains colistin (4 μg/ml); (4) potato apyrase and colistin group, (5) Apyrase Agent group, (6) Apyrase Agent and colistin group.
The treatment is applied immediately after inoculation. After 24 hours, the mice are given lethal IP injections of pentobarbital (150 mg/kg) and skin samples are collected using a scalpel and scissors.

[4] = system: Burkholderia cepacia GIIIb AU0062; assay: Killing of Burkholderia cepacia GIIIb AU0062 by colistin with Apyrase Agent, CFU count; assay type: cell-based; conditions: colistin at less than 20 μg/ml, with Apyrase Agent 2 U/ml or alone
Procedure: as §2
Burkholderia cepacia GIIIb AU0062 is grown in the presence of combinations of 0 and 2 U/ml of Apyrase Agent and approximately 0 to 20 μg/ml of colistin. After incubation, the numbers of viable cells are determined by counting the colony forming units (CFU) on the plate (data provided as CFU/ml). Apyrase Agent improves the efficiency of killing Burkholderia cepacia GIIIb AU0062 by colistin. Apyrase Agent increases the effectiveness of colistin at less than 20 μg/ml such that less than 10 to 100 CFU/ml are detected relative to greater than 10^4 to 10^5 in the presence of colistin alone at the same concentrations.

A. baumannii ATCC DMCI = assay: Mouse model for wound infection and healing (burn), A. baumannii ATCC DMCI, treatment 24 hours after inoculation; assay type: in vivo; conditions: wounds treated 24 hours after inoculation, skin collected 48 hours after the burn
Procedure: e.g., in a mouse model for wound infection and healing. After a burn, A. baumannii ATCC DMCI is inoculated on skin. After 24 hours, the wounds are treated with Apyrase Agent alone, colistin alone, or Apyrase Agent and colistin in combination. Skin samples are collected after another 24 hours and the CFU/g skin of A baumannii ATCC DMCI is determined. […] In the presence of Apyrase Agent or colistin alone, A. baumannii is detected at amounts of approximately 10^8 CFU/g of skin.

[5] = system: Burkholderia dolosa AU0589; assay: Killing of Burkholderia dolosa AU0589 by colistin with Apyrase Agent, CFU count; assay type: cell-based; conditions: colistin at less than 20 μg/ml, with Apyrase Agent 2 U/ml or alone
Procedure: as §2
as §3, with “dolosa AU0589” for “cepacia AU1114”, “10^6” for “10^5”, “10^7” for “10^6”

With colistin sulfate salt the viable cell count [1] was “approximately 10^5 CFU/ml”, the viable cell count (A. baumannii strain DMCI) was “approximately 10^7 CFU/ml” and the “numbers of viable cells (CFU)” value [2] was 10^5 to 10^6 CFU/ml. The “numbers of viable cells (CFU)” value [3] was 10^4 to 10^5 CFU/ml, the “viable bacteria number recovered from burn sites” value (A. baumannii DMCI) was “highest viable bacteria number” and the “numbers of viable cells (CFU)” value [4] was 10^4 to 10^5 CFU/ml. For the same substance, the “A. baumannii detected on skin” value (A. baumannii ATCC DMCI) was “approximately 10^8 CFU/g of skin” and the “numbers of viable cells (CFU)” value [5] was 10^6 to 10^7 CFU/ml.
